Measurements from the NIST ThermoML archive (doi:10.1016/j.jct.2016.06.007).
Numbers after ± are expanded uncertainties.

Assay: mn = molality of the nth substance listed, in mol/kg
Conditions: Liquid, m1 = 7.377; for viscosity: Falling or rolling sphere viscometry; for mass density: Vibrating tube method

Work on `CN(CCO)CCO` [N-methyldiethanolamine] + O yielded a viscosity (313.15 K, 6.3 kPa) of 4.23 ± 0.16 mPa·s, a mass density (313.15 K, 6.3 kPa) of 1031.4 ± 2.5 kg/m3 and a viscosity (328.15 K, 13.7 kPa) of 2.82 ± 0.14 mPa·s. It also gave a mass density (328.15 K, 13.7 kPa) of 1021.6 ± 2.5 kg/m3, a viscosity (343.15 K, 27.4 kPa) of 1.83 ± 0.04 mPa·s and a mass density (343.15 K, 27.4 kPa) of 1009.7 ± 2.5 kg/m3.
